Tests used:
[1] = system: haloperidol-induced decrease in SMA; assay: Measurement of the haloperidol-antagonistic effect in mice (spontaneous motor activity, SMA); type: in vivo, male CFLP mice
Procedure: 2. Measurement of the haloperidol-antagonistic effect in mice
Male CFLP mice weighing 20 to 22 g were treated intraperitoneally with a dose of 0.5 mg/kg of 4-[4-(4-chlorophenyl)-4-hydroxy-1-piperidinyl]-1-(4-fluorophenyl)-1-butanone (haloperidol) and the spontaneous motor activity (SMA) was measured, in relation to the data obtained in the controls, by a capacitance-sensitive motimeter. Another group of the test animals was treated also with a dose of 30 mg/kg of the compound of Example 1, 15 minutes after the administration of haloperidol.

[2] = Motility studies on mice (spontaneous motor activity, two-hour experiment); type: in vivo, male mice; conditions: for Increase in motility: 2 h
Procedure: 1.a. Motility studies on mice
For studying how the compound prepared according to Example 1 increases the motility in male mice, two-hour experiments were carried out. In order to determine the spontaneous motor activity, the component of hunger-activitywas excluded (the mice were not fasted), thus only the exploratory activity was recorded. The test animals were placed into the observation box immediately after the intraperitoneal treatment.

[3] = Acute toxicity in mice; conditions: mouse, in vivo
From the text: (§1) The acute toxicity values (LD50) of the compound of Example 1: […]

[4] = Dependence studies, DAF (drug admixed food) method; conditions: 0.05% (w/w) in food, 6 weeks, average daily dose 40 mg/kg, two weeks after withdrawal, listed as compound of the invention
[5] = Emetic side-effect; conditions: in vivo
[6] = system: oxotremorine-induced salivation; assay: Inhibition of oxotremorine-induced salivation in mice; type: in vivo, male CFLP mice; conditions: 6.25-25.0 mg/kg p.o.
Procedure: (§2) 4. Inhibition of oxotremorine in mice
(§3) The examinations were carried out according to the method of R. C. Rathbun and I. H. Slater [Psychopharm. 4, 114 (1963)]. One hour after male, starving CFLP mice were orally pre-treated with a dose of 6.25, 12.5 or 25.0 mg/kg of the compound of Example 1, they were intraperitoneally treated with a dose of 1 mg/kg of 1-[4-(1-pyrrolidinyl)-2-butinyl]-2-pyrrolidinone (oxotremorine).
(§4) The inhibition of oxotremorine-induced tremor and salivation exerted by the compound of Example 1 was measured in relation to the control group treated with oxotremorine only. The strength of the inhibition was expressed in scores (0, 0.5, 1, 2 or 3).

[7] = Examination of stereotypy in rats (method of Costall and Naylor); type: in vivo; set-up: Stereotypy, average score: scale not given here; conditions: for Stereotypy (in words): rats
From the text: 3. Examination of stereotypy in rats
For the measurement of stereotypy the method of B. Costall and R. I. Naylor [Eur. J. Pharmacol. 18, 95 (1972)] was used. The score values in Table 4 are average score values obtained at the time of reading.

[8] = system: oxotremorine-induced tremor; assay: Inhibition of oxotremorine-induced tremor in mice (method of Rathbun and Slater); type: in vivo, male CFLP mice; conditions: for Inhibition in relation to control group: oxotremorine 1 mg/kg i.p. 1 h later
Procedure: as §2, §3, §4

[9] = Motility studies on rats (2 hours); type: in vivo, male CFY rats; conditions: for Increase in motility: 2 h
Procedure: 1.b. Motility studies on rats
Male CFY rats weighing 120 to 140 g were treated intraperitoneally in groups of three with a dose of 10, 20, 25 or 30 mg/kg of the compound of Example 1, and were immediately placed into the observation box. The experiment lasted for 2 hours.

[10] = Acute toxicity in rats; conditions: rat, in vivo
From the text: as §1

Structure (SMILES): O=C(CCCN1CCC(O)(c2ccc(Cl)cc2)CC1)c1ccc(F)cc1 [Haloperidol, 4-[4-(4-chlorophenyl)-4-hydroxy-1-piperidinyl]-1-(4-fluorophenyl)-1-butanone, reference compound]
- Decrease in SMA ([1]; haloperidol alone, 0.5 mg/kg i.p., relative to controls): 62.6%

Structure (SMILES): CC1Cc2cc3c(cc2C(c2ccc(N)cc2)=NN1)OCO3 (centres unmarked) [Example 1, 1-(4-aminophenyl)-4-methyl-7,8-methylenedioxy-3,4-dihydro-5H-2,3-benzodiazepine]
- Increase in motility ([2]; 3 mg/kg i.p.): 15%
- Increase in motility ([2]; 10 mg/kg i.p.): 131%
- Increase in motility ([2]; 30 mg/kg i.p.): 473%
- Effect on motility or spontaneous motor activity (in words) ([2]; i.p.): increases the motility or spontaneous motor activity of mice and rats in a dose-dependent manner
- LD50 ([3]; ip): 260 mg/kg
- LD50 ([3]; po): 300 mg/kg
- Withdrawal symptoms or signs of dependence [4]: does not have the unfavourable side-effects of the known psychostimulants (emetic effect, proneness to dependence)
- Emetic side-effect [5]: does not have the unfavourable side-effects of the known psychostimulants (emetic effect, proneness to dependence)
- Effect on oxotremorine-induced salivation (in words) [6]: does not inhibit the oxotremorine-induced salivation
- Stereotypy, average score ([7]; 3.125 mg/kg i.p., 15 min): 0.3
- Stereotypy, average score ([7]; 3.125 mg/kg i.p., 30 min): 0.3
- Stereotypy, average score ([7]; 3.125 mg/kg i.p., 60 min): 0.1
- Stereotypy, average score ([7]; 3.125 mg/kg i.p., 90 min): 0
- Stereotypy, average score ([7]; 3.125 mg/kg i.p., 120 min): 0
- Stereotypy, average score ([7]; 3.125 mg/kg i.p., 180 min): 0
- Stereotypy, average score ([7]; 3.125 mg/kg i.p., 240 min): 0
- Stereotypy, average score ([7]; 6.25 mg/kg i.p., 15 min): 1.0
- Stereotypy, average score ([7]; 6.25 mg/kg i.p., 30 min): 1.3
- Stereotypy, average score ([7]; 6.25 mg/kg i.p., 60 min): 0.3
- Stereotypy, average score ([7]; 6.25 mg/kg i.p., 90 min): 0
- Stereotypy, average score ([7]; 6.25 mg/kg i.p., 120 min): 0
- Stereotypy, average score ([7]; 6.25 mg/kg i.p., 180 min): 0
- Stereotypy, average score ([7]; 6.25 mg/kg i.p., 240 min): 0
- Stereotypy, average score ([7]; 6.25 mg/kg p.o., 15 min): 0.7
- Stereotypy, average score ([7]; 6.25 mg/kg p.o., 30 min): 0.7
- Stereotypy, average score ([7]; 6.25 mg/kg p.o., 60 min): 0.6
- Stereotypy, average score ([7]; 6.25 mg/kg p.o., 90 min): 0
- Stereotypy, average score ([7]; 6.25 mg/kg p.o., 120 min): 0
- Stereotypy, average score ([7]; 6.25 mg/kg p.o., 180 min): 0
- Stereotypy, average score ([7]; 6.25 mg/kg p.o., 240 min): 0
- Stereotypy, average score ([7]; 12.5 mg/kg i.p., 15 min): 1.2
- Stereotypy, average score ([7]; 12.5 mg/kg i.p., 30 min): 1.3
- Stereotypy, average score ([7]; 12.5 mg/kg i.p., 60 min): 1.1
- Stereotypy, average score ([7]; 12.5 mg/kg i.p., 90 min): 1.0
- Stereotypy, average score ([7]; 12.5 mg/kg i.p., 120 min): 0
- Stereotypy, average score ([7]; 12.5 mg/kg i.p., 180 min): 0
- Stereotypy, average score ([7]; 12.5 mg/kg i.p., 240 min): 0
- Stereotypy, average score ([7]; 12.5 mg/kg p.o., 15 min): 0.4
- Stereotypy, average score ([7]; 12.5 mg/kg p.o., 30 min): 0.9
- Stereotypy, average score ([7]; 12.5 mg/kg p.o., 60 min): 1.4
- Stereotypy, average score ([7]; 12.5 mg/kg p.o., 90 min): 0.4
- Stereotypy, average score ([7]; 12.5 mg/kg p.o., 120 min): 0
- Stereotypy, average score ([7]; 12.5 mg/kg p.o., 180 min): 0
- Stereotypy, average score ([7]; 12.5 mg/kg p.o., 240 min): 0
- Stereotypy, average score ([7]; 25.0 mg/kg i.p., 15 min): 1.3
- Stereotypy, average score ([7]; 25.0 mg/kg i.p., 30 min): 1.5
- Stereotypy, average score ([7]; 25.0 mg/kg i.p., 60 min): 1.8
- Stereotypy, average score ([7]; 25.0 mg/kg i.p., 90 min): 1.6
- Stereotypy, average score ([7]; 25.0 mg/kg i.p., 120 min): 1.0
- Stereotypy, average score ([7]; 25.0 mg/kg i.p., 180 min): 0.8
- Stereotypy, average score ([7]; 25.0 mg/kg i.p., 240 min): 0.4
- Stereotypy, average score ([7]; 25.0 mg/kg p.o., 15 min): 0.7
- Stereotypy, average score ([7]; 25.0 mg/kg p.o., 30 min): 1.1
- Stereotypy, average score ([7]; 25.0 mg/kg p.o., 60 min): 1.5
- Stereotypy, average score ([7]; 25.0 mg/kg p.o., 90 min): 0.6
- Stereotypy, average score ([7]; 25.0 mg/kg p.o., 120 min): 0.6
- Stereotypy, average score ([7]; 25.0 mg/kg p.o., 180 min): 0.3
- Stereotypy, average score ([7]; 25.0 mg/kg p.o., 240 min): 0
- Stereotypy, average score ([7]; 50.0 mg/kg i.p., 15 min): 1.5
- Stereotypy, average score ([7]; 50.0 mg/kg i.p., 30 min): 2.1
- Stereotypy, average score ([7]; 50.0 mg/kg i.p., 60 min): 2.7
- Stereotypy, average score ([7]; 50.0 mg/kg i.p., 90 min): 2.4
- Stereotypy, average score ([7]; 50.0 mg/kg i.p., 120 min): 2.4
- Stereotypy, average score ([7]; 50.0 mg/kg i.p., 180 min): 1.7
- Stereotypy, average score ([7]; 50.0 mg/kg i.p., 240 min): 0.6
- Stereotypy, average score ([7]; 50.0 mg/kg p.o., 15 min): 1.7
- Stereotypy, average score ([7]; 50.0 mg/kg p.o., 30 min): 1.9
- Stereotypy, average score ([7]; 50.0 mg/kg p.o., 60 min): 2.3
- Stereotypy, average score ([7]; 50.0 mg/kg p.o., 90 min): 2.3
- Stereotypy, average score ([7]; 50.0 mg/kg p.o., 120 min): 1.9
- Stereotypy, average score ([7]; 50.0 mg/kg p.o., 180 min): 1.1
- Stereotypy, average score ([7]; 50.0 mg/kg p.o., 240 min): 0.2
- Stereotypy (in words) [7]: causes stereotypy. This effect develops earlier but it is somewhat weaker than the effect of bromocriptine
- Antagonism of haloperidol-induced decrease in SMA ([1]; 30 mg/kg, 15 min after haloperidol 0.5 mg/kg i.p.): significantly antagonized
- Decrease in SMA ([1]; haloperidol 0.5 mg/kg i.p. + compound of Example 1 30 mg/kg i.p. 15 min later): 17.1%
- Inhibition in relation to control group ([8]; 6.25 mg/kg p.o.): 17%
- Inhibition in relation to control group ([8]; 12.5 mg/kg p.o.): 50%
- Inhibition in relation to control group ([8]; 25.0 mg/kg p.o.): 74%
- ED50 ([8]; Mus musculus, po, range (9.5-19.1) printed in the next line): 13.5 mg/kg
- Effect on oxotremorine-induced tremor (in words) ([8]; mice): significantly decreases the tremor
- Increase in motility ([9]; 10 mg/kg i.p.): 21%
- Increase in motility ([9]; 20 mg/kg i.p.): 87%
- Increase in motility ([9]; 25 mg/kg i.p.): 106%
- Increase in motility ([9]; 30 mg/kg i.p.): 462%
- Effect on motility or spontaneous motor activity (in words) ([9]; i.p.): increases the motility or spontaneous motor activity of mice and rats in a dose-dependent manner
- LD50 ([10]; ip): 250 mg/kg
- LD50 ([10]; po): 350 mg/kg

Structure (SMILES): CC(C)C[C@H]1C(=O)N2CCC[C@H]2[C@]2(O)O[C@](NC(=O)[C@@H]3C=C4c5cccc6[nH]c(Br)c(c56)C[C@H]4N(C)C3)(C(C)C)C(=O)N12 [Bromocriptine, reference compound]
- Stereotypy, average score ([7]; 5 mg/kg i.p., 30 min): 0.2
- Stereotypy, average score ([7]; 5 mg/kg i.p., 60 min): 0.6
- Stereotypy, average score ([7]; 5 mg/kg i.p., 120 min): 0.8
- Stereotypy, average score ([7]; 5 mg/kg i.p., 180 min): 1.1
- Stereotypy, average score ([7]; 5 mg/kg i.p., 240 min): 0.4
- Stereotypy, average score ([7]; 10 mg/kg i.p., 30 min): 0.5
- Stereotypy, average score ([7]; 10 mg/kg i.p., 60 min): 1.0
- Stereotypy, average score ([7]; 10 mg/kg i.p., 120 min): 1.8
- Stereotypy, average score ([7]; 10 mg/kg i.p., 180 min): 1.9
- Stereotypy, average score ([7]; 10 mg/kg i.p., 240 min): 1.5
- Stereotypy, average score ([7]; 20 mg/kg i.p., 30 min): 0.6
- Stereotypy, average score ([7]; 20 mg/kg i.p., 60 min): 1.2
- Stereotypy, average score ([7]; 20 mg/kg i.p., 120 min): 2.2
- Stereotypy, average score ([7]; 20 mg/kg i.p., 180 min): 2.4
- Stereotypy, average score ([7]; 20 mg/kg i.p., 240 min): 1.8
- Stereotypy (in words) [7]: causes stereotypy

Source: patent US4835152A, “1-(4-Aminophenyl)-4-methyl-7,8-methylenedioxy-3,4-dihydro-5H-2,3-b enzodiazepine and acid addition salts thereof same” (Biogal Gyogyszergyar, priority 1986, dated 1989)
